From patent US9138439B2, “Methods and compositions for modulating P300/CBP activity” (The Wistar Institute, priority 2007, dated 2015)
Substitutions are numbered along the chain they refer to. Non-standard residues stand in square brackets, D forms with d. No end group written: not given here. Cit = NC(=O)NCCC[C@H](N)C(=O)O

Tests used:
AANAT = test: specificity test against other acetyltransferases: AANAT; format: biochemical
Source text: (§1) The three small molecule p300 HAT inhibitors (7, 17.2 and 17.3) identified using virtual library screening provided new leads for further development. […] From the docking model of 7 to p300 HAT (FIG. 11), important hydrogen bonding roles are indicated for the side-chains of Arg1410, Thr1411, Trp1466 (all interacting with the inhibitor carboxylate) as well as the side-chain of Tyr1467 (hydrogen bonding to the nitro group). While Arg1410 and Tyr1467 are critical for CoA binding and/or catalysis, mutation of Trp1466 is well-tolerated. To explore the specificity of the small molecule HAT inhibitors, these compounds are tested against other acetyltransferases (PCAF, AANAT, RTT109, EsaI), which assists in the prioritization of candidates for pharmacologic applications.

PCAF = PCAF (Homo sapiens, UniProt Q92831); test: specificity test against other acetyltransferases: PCAF; format: biochemical
PCAF, sequence (Q92831 whole entry, species assumed): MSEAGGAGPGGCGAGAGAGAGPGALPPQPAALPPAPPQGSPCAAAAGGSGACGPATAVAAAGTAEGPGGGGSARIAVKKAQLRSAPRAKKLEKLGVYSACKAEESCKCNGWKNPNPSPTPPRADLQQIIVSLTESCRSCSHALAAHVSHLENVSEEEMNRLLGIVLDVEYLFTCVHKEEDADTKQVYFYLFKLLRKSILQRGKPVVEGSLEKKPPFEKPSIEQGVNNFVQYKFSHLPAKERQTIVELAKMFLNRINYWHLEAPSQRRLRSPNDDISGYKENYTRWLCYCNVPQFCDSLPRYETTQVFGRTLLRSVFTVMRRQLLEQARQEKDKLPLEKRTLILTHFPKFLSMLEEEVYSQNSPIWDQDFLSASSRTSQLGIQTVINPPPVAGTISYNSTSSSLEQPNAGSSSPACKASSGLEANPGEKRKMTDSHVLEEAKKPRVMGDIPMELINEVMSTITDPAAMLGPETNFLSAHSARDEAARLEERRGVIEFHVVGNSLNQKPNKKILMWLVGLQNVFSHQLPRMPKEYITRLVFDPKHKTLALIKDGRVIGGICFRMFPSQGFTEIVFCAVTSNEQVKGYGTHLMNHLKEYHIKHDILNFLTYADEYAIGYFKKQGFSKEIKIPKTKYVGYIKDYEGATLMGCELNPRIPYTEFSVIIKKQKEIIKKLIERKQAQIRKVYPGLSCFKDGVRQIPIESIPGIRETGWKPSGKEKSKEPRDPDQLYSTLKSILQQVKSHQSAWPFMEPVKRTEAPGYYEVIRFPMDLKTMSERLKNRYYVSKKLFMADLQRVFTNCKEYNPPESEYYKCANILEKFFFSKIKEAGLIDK
Source text: as §1

p300/CBP HAT [1] = test: coupled spectrophotometric assay that measures CoASH production in real-time; format: biochemical, human; conditions: inhibitor concentration not given
Source text: (§2) In accordance with the methods of the present invention, compounds were screened to identify modulators of p300/CBP HAT activity.

wild-type p300 HAT = biological target: T1, wild-type p300 HAT (Homo sapiens, UniProt Q09472, DEL1523-1554/M1652G); test: HAT assay, steady state kinetic parameters of H4 tail peptide analog substrates, wild-type p300 HAT; format: biochemical; conditions: peptide as substrate of wild-type p300 HAT
T1 construct: linking the natural N- and C-termini (residues 1287 and 1666) of the HAT domain; made in house
T1 sequence (Q09472 with tags, fused parts or gaps DEL1523-1554/M1652G): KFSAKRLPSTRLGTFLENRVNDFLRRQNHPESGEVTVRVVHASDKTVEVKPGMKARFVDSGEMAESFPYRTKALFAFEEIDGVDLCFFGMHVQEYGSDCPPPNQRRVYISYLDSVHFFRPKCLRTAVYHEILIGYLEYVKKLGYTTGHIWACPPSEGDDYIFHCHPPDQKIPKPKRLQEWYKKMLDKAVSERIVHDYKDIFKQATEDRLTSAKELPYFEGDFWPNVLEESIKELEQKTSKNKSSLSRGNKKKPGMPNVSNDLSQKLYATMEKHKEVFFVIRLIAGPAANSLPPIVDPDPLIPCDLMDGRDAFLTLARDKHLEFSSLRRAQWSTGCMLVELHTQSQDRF
Description: (§3) HAT Assays. HAT activity was determined by either a rapid and nonradioactive HAT assay that measures the production of CoASH by its facile reaction with DTNB, or by a radioactive assay (Lau, et al. (2000) supra; Thompson, et al. (2000) supra). […] For the radioactive assay, the concentration of [^14C]acetyl-CoA was fixed at 20 μM when measuring the steady-state kinetic parameters for peptide substrates.
(§4) To test the influence of electrostatic interactions on substrate sequence selection, the steady state kinetic parameters for several synthetic H4 tail peptide analogs was determined (listed in Table 5). In H4-15, there are two other basic residues (Lys5 and Lys12) near the target Lys8. It has previously been shown that either one of the nearby Lys (or Arg replacements) is sufficient to permit efficient acetylation by full-length p300 (Thompson, et al. (2001) supra). Here, the effects of replacing Lys5 and Lys12 with Ala, the neutral residue hydrogen bonding citrulline, or Asp were compared for wild-type and mutant p300 HAT as indicated in Table 5. Analysis of the single lysine substrate, analogous to the Lys-CoA component, which contains both amino and carboxyl groups derivatized as amides (Table 5), was also conducted. Km of these substrates were generally too high to be measured (>1000 μM) under the experimental conditions, highlighting the important role of the nearby positively charged residues for substrate interaction. As shown Table 5, the 22-fold V/K difference between wild-type p300 HAT protein and the D1625R/D1628R mutant for H4-15 substrate dropped to 6-fold when using Ac-Lys-NH2 as substrate. […] Consistent with this idea, H4-12^K5A/K12A or H4-12^K5Cit/K12A which lack proximal basic residues but contain neutral hydrogen bonding residues show kinetic behavior similar to that of Ac-Lys-NH2 (Table 5).

D1625R/D1628R p300 HAT = biological target: T2, D1625R/D1628R p300 HAT (Homo sapiens, UniProt Q09472, D1625R/D1628R/DEL1523-1554/M1652G); test: HAT assay, steady state kinetic parameters of H4 tail peptide analog substrates, D1625R/D1628R p300 HAT mutant; format: biochemical; conditions: for V/K(M^−1s^−1) for D1625R/D1628R: peptide as substrate of D1625R/D1628R p300 HAT mutant; for V/K difference between wild-type p300 HAT protein and the D1625R/D1628R mutant: ratio wild-type versus mutant for the given substrate
T2 construct: linking the natural N- and C-termini (residues 1287 and 1666) of the HAT domain; made in house
T2 sequence (Q09472 with tags, fused parts or gaps DEL1523-1554/D1625R/D1628R/M1652G): T1 sequence (Q09472 with tags, fused parts or gaps DEL1523-1554/M1652G) with D307R, D310R
Description: as §3, §4

p300/CBP HAT [2] = test: direct radioactive assay measuring 14C-incorporation from acetyl-CoA into H4 tail peptide; format: biochemical, human; conditions: inhibitor concentration not given
Description: as §2, §3

p300/CBP = p300/CBP (Homo sapiens, UniProt Q09472); conditions: Lau, et al. (2000); cited from earlier work
p300/CBP, sequence (Q09472 whole entry): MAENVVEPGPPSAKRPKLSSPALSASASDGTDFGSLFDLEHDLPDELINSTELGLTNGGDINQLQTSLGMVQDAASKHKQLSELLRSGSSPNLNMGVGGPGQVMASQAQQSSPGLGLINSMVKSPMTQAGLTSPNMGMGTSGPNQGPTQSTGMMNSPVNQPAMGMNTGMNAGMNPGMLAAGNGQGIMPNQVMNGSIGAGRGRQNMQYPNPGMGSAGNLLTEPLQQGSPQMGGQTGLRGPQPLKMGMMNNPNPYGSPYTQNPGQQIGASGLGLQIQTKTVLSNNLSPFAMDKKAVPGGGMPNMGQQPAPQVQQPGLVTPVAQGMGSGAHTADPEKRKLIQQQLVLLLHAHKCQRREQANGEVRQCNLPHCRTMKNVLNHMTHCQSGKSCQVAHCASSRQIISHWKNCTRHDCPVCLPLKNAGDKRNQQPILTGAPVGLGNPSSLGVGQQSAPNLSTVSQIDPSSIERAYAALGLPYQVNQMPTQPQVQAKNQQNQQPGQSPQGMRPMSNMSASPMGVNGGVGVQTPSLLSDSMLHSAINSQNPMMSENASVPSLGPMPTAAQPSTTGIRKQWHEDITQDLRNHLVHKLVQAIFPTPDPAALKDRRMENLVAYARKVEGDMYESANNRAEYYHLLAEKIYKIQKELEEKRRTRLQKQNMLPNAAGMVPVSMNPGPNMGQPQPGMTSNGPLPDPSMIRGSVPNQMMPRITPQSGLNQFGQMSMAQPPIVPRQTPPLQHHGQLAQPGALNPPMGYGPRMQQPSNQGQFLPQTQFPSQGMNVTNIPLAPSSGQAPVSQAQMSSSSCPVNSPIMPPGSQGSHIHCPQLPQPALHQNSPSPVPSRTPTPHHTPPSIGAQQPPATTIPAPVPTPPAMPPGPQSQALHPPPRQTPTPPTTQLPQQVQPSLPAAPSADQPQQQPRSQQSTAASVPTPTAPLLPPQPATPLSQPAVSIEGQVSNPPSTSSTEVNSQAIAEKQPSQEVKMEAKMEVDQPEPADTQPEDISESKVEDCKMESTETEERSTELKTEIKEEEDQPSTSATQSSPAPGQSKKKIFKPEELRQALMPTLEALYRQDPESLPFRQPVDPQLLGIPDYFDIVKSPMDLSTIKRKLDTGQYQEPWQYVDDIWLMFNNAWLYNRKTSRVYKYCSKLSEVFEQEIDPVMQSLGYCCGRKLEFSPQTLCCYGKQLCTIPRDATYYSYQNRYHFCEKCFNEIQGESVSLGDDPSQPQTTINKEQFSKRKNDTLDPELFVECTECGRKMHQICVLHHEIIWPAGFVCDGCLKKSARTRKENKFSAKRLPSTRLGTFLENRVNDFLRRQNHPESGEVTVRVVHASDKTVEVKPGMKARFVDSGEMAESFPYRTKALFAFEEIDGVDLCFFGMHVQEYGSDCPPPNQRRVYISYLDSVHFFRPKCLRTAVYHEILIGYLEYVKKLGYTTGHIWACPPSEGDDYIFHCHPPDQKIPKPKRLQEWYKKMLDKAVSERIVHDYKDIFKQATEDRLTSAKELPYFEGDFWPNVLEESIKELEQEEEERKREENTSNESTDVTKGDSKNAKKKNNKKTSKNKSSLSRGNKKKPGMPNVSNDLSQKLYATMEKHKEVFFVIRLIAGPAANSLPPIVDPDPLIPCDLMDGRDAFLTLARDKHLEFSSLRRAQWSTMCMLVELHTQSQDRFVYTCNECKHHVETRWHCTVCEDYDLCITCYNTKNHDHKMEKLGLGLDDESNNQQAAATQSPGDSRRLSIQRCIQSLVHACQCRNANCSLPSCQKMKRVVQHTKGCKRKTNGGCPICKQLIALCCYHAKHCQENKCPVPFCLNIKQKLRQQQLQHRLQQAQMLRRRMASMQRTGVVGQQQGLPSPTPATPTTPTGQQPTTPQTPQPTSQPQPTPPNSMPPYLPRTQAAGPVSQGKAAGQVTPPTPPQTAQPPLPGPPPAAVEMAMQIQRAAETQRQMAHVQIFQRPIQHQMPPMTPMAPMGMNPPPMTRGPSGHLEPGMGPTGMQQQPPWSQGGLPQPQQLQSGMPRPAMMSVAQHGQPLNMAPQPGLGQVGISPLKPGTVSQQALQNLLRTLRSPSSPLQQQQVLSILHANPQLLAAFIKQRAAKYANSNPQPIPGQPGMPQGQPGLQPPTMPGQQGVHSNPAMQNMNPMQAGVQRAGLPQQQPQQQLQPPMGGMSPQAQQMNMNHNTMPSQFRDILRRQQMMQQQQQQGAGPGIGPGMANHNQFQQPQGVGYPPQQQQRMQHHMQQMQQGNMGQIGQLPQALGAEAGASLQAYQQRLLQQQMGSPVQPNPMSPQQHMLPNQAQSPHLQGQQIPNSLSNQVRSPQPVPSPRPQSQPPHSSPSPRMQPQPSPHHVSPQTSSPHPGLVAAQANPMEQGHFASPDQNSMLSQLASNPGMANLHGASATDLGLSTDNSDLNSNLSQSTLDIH

Molecule	melting point [°C]	% Inhibition Coupled (p300/CBP HAT [1]) [%]	% Inhibition Direct (p300/CBP HAT [2]) [%]	also measured
CC1=NN(c2ccc(C(=O)O)cc2)C(=O)/C1=C\c1ccc(-c2cc(C)c(C)cc2[N+](=O)[O-])o1 [Compound 7]	–	85.9	–	% inhibition of AANAT (AANAT): 4.8%; % inhibition of PCAF (PCAF): 0%
CC(=O)NC(CCCCN)C(N)=O (stereo not drawn) [Ac-Lys-NH2, CH3CO—NH-Lys-CONH2]	–	–	–	V/K(M^−1s^−1) for W.T. (wild-type p300 HAT): 1843 ± 50 M⁻¹ s⁻¹; V/K(M^−1s^−1) for D1625R/D1628R (D1625R/D1628R p300 HAT): 326 ± 10 M⁻¹ s⁻¹; V/K difference between wild-type p300 HAT protein and the D1625R/D1628R mutant (D1625R/D1628R p300 HAT): 6 fold
CC1=NN(CCCCC(=O)O)C(=O)/C1=C\c1ccc(-c2cc(C)c(C)cc2[N+](=O)[O-])o1 [Compound 9]	–	92.6	55.8	–
RGAGGKGLGAGA [H4-12(K5A/K12A)]	–	–	–	V/K(M^−1s^−1) for W.T. (wild-type p300 HAT): 3824 ± 180 M⁻¹ s⁻¹; V/K(M^−1s^−1) for D1625R/D1628R (D1625R/D1628R p300 HAT): 515 ± 15 M⁻¹ s⁻¹
GRGKGGKGLGKGGAK (Ac-GRGKGGKGLGKGGAK) [Compound H4-15]	–	–	–	V/K(M^−1s^−1) for W.T. (wild-type p300 HAT): 25000 ± 1643 M⁻¹ s⁻¹; V/K(M^−1s^−1) for D1625R/D1628R (D1625R/D1628R p300 HAT): 1162 ± 60 M⁻¹ s⁻¹; V/K difference between wild-type p300 HAT protein and the D1625R/D1628R mutant (D1625R/D1628R p300 HAT): 22 fold
CC1=NN(c2ccc(C(=O)O)cc2)C(=O)/C1=C\c1ccc(-c2ccccc2F)o1 [Compound 6328730]	–	90.5	67.9	–
RGXGGKGLGAGA (RG[Cit]GGKGLGAGA) [H4-12(K5X/K12A)]	–	–	–	V/K(M^−1s^−1) for W.T. (wild-type p300 HAT): 5247 ± 60 M⁻¹ s⁻¹; V/K(M^−1s^−1) for D1625R/D1628R (D1625R/D1628R p300 HAT): 738 ± 20 M⁻¹ s⁻¹
CC1=NN(c2ccc(C(=O)O)cc2)C(=O)/C1=C\c1ccc(-c2ccc([N+](=O)[O-])cc2)o1 [Compound 6b]	338 to 341	35.6	33.8	–
CC1=NN(c2ccc(C(=O)O)cc2)C(=O)/C1=C\c1ccc(-c2cc(C)ccc2[N+](=O)[O-])o1 [Compound 40174]	–	–	79.5	–
GRGDGGKGLGDGGAK [H4-15(K5D/K12D)]	–	–	–	V/K(M^−1s^−1) for W.T. (wild-type p300 HAT): 636 ± 0 M⁻¹ s⁻¹; V/K(M^−1s^−1) for D1625R/D1628R (D1625R/D1628R p300 HAT): 422 ± 20 M⁻¹ s⁻¹; V/K difference between wild-type p300 HAT protein and the D1625R/D1628R mutant (D1625R/D1628R p300 HAT): ≤ 2 fold
CC1=NN(c2ccc(C(=O)O)cc2)C(=O)C1 [CM-26]	–	16.3	–	–
CC1=NN(c2ccc(C(=O)O)cc2)C(=O)/C1=C\c1ccc(-c2ccccc2)o1 [Compound 6a]	306 to 309	33.7	71.5	–
CC(=O)N[C@@H](CCCCNC(=O)CSCCNC(=O)CCNC(=O)[C@H](O)C(C)(C)COP(=O)(O)OP(=O)(O)OC[C@H]1O[C@@H](n2cnc3c(N)ncnc32)[C@H](O)[C@@H]1OP(=O)(O)O)C(N)=O [Lys-CoA]	–	–	–	inhibition of p300/CBP (p300/CBP): powerful and selective inhibitor

More lines, main results first:

melting point [°C]	Molecule	% Inhibition Coupled (p300/CBP HAT [1]) [%]	% Inhibition Direct (p300/CBP HAT [2]) [%]	also measured
260 to 262	CC1=NN(c2cccc(C(=O)O)c2)C(=O)/C1=C\c1ccc(-c2cc(C)c(C)cc2[N+](=O)[O-])o1 [Compound 6e]	63.4	96.4	–
273 to 275	CC1=NN(c2ccc(C(N)=O)cc2)C(=O)/C1=C\c1ccc(-c2cc(C)c(C)cc2[N+](=O)[O-])o1 [Compound 6h]	40.6	94.7	–
192 to 194	CCOC(=O)c1ccc(N2N=C(C)/C(=C/c3ccc(-c4cc(C)c(C)cc4[N+](=O)[O-])o3)C2=O)cc1 [Compound 6d]	0	–	–
220 to 223	CC1=NN(c2ccc(Cl)cc2)C(=O)/C1=C\c1ccc(-c2cc(C)c(C)cc2[N+](=O)[O-])o1 [Compound 6i]	13.9	–	–
249 to 251	CCOC(=O)c1ccccc1-c1ccc(/C=C2\C(=O)N(c3ccc(C(=O)O)cc3)N=C2C)o1 [Compound 6c]	38.1	8.3	–
210 to 213	CC1=NN(c2ccc(S(=O)(=O)O)cc2)C(=O)/C1=C\c1ccc(-c2cc(C)c(C)cc2[N+](=O)[O-])o1 [Compound 6f]	57.4	97.2	–
